One assay deals with RAW 264.7. In words: Anti-inflammation assay: released NO in LPS-stimulated RAW 264.7 (Griess). Type of assay: cell-based, Murine. Particulars: then 1 µg/mL LPS 24 h; for Released NO: peptide 10 µg/mL 1 h; for Released NO, mean±SD: peptide 10 µg/mL pre-treatment 1 h, Griess reagent, n = 3. The procedure:
Murine macrophage cells (RAW 264.7; ATCC TIB-71™) were cultured in Dulbecco’s Modified Eagle’s Medium (DMEM) that was supplemented with 10% heat-inactivated fetal bovine serum (FBS) and 1% antibiotic solution. Colorectal adenocarcinoma cells (CaCo-2; ATCC HTB 37™) were cultured in Eagle’s Minimum Essential Medium (EMEM), also supplemented with 10% heat-inactivated FBS and 1% antibiotic solution. Both cell types were maintained in a humidified incubator with 5% CO2. The cell culture medium was refreshed every three days.
The anti-inflammation assay was conducted following the method described by Barzkar et al. with slight modifications. RAW 264.7 (1 x 10^5 cells) was seeded into a 96-well plate to allow for cell attachment. After 24 h, the cells were pre-treated with fresh medium containing peptide samples at a concentration of 10 µg/mL for 1 h. Subsequently, the treated cells were stimulated with 1 µg/mL lipopolysaccharide (LPS) for an additional 24 h. Unstimulated cells were included as a negative control. At the end of the treatment period, the conditioned medium was collected for the determination of released nitric oxide (NO). Griess’s reagent (Promega) was utilized to measure the NO concentration, following the manufacturer’s instructions. A NO calibration curve was generated to quantify the released NO in the conditioned medium.
(Nitrite, measured by Griess reagent, commonly stands in for NO production.)

Assay [1] in a line: DPPH radical scavenging assay. Type of assay: biochemical. The settings on record: for DPPH, mean±SD / DPPH: supplement tables; for DPPH, mean±SD / DPPH radical scavenging activity (TEAC): n = 3, mean ± SD; for DPPH radical scavenging activity (TEAC): 10 µL sample + 190 µL 0.1 mM DPPH in 70% ethanol, 30 min dark, room temperature, 517 nm, Trolox standard curve. The procedure:
The DPPH radical scavenging activity of the sample was assessed following a modified protocol based on a previous study. In each well of a 96-well plate, 10 μL of the sample was added, followed by 190 μL of 0.1 mM DPPH solution in 70% ethanol. The mixture was then incubated at room temperature in the dark for 30 min. After the incubation period, the absorbance of the mixture was measured at 517 nm. The DPPH radical scavenging activity was calculated using the following equation (1):
DPPHradicalscavengingactivity%=Acontrol–Asample/Acontrol×100 (1)
In this equation, Acontrol represents the absorbance of a control solution containing all reagents except for the test samples, while Asample is the absorbance of the mixture (the sample combined with 0.1 mM DPPH). To determine the Trolox equivalent antioxidant capacity (TEAC), a Trolox standard curve was utilized. The results were expressed as millimoles of Trolox equivalents per milligram of protein (mM TE/mg protein).
Background: Loss of DPPH colour is used to gauge radical scavenging.

The test system of assay [2] is angiotensin I-converting enzyme (ACE). In words: ACE inhibitory activity assay (fluorometric ACE activity assay kit). It counts as biochemical. Particulars: peptide sample 1 mg/mL. The procedure: The ACE inhibitory activity assay was performed following the method outlined by Batista et al., with slight modifications, using a fluorometric angiotensin I-converting enzyme (ACE) activity assay kit from Sigma-Aldrich (catalog number CS0002), Burlington, Massachusetts, USA. In summary, 10 µ L of the sample (1 mg/mL for the peptide sample and 50 µg/mL for ramipril) was combined with 40 µ L of the ACE solution (CS0002B) in 96-well flat-bottom black plates at 37 °C for 5 min. Next, 50 µ L of the substrate solution (CS0002C) was added to this mixture to initiate the reaction. A fluorescence multiwell plate reader was used to monitor the changes in fluorescence. The sample’s fluorescence was measured every min for 5 min, with excitation at 320 nm and emission at 405 nm. All reagents, except the test sample, were prepared to assess the ACE positive control activity. A kit standard solution (CS0002D) was diluted with assay buffer (CS0002A) to create different concentrations (nmol) of the standard solution, allowing generation of a standard curve. The slope of the standard curve (RFU/nmol) and the slope of the sample kinetic curve were utilized to calculate the ACE activity using the following equation (3):
ACEactivitynmol/min=Slopesample/Slopestandard×DF (3)
Where Slopesample refers to the slope of the blank-subtracted sample curve (RFU/min), Slopestandard refers to the slope of the blank-subtracted standard curve (RFU/nmol), DF is the dilution factor, and 0.1 nmol/min is equivalent to […].
In this study, the results of ACE inhibitory activity are expressed as percentages. The ACE inhibitory activity (%) was calculated using the following equation (4):
ACEinhibitoryactivity%=ACEPC–ACES/ACEPC×100 (4)
Where ACEPC represents the ACE activity of the positive control, and ACES denotes the ACE activity of the sample.

Assay [3] in a line: Ferric reducing antioxidant power (FRAP) assay. Type of assay: biochemical. The procedure: The FRAP assay was conducted following the method outlined by Rumpf et al.. The FRAP solution was prepared by mixing 300 mM acetate buffer (pH 3.6), 10 mM TPTZ (2,4,6-Tris(2-pyridyl)-s-triazine) in 40 mM hydrochloric acid, and 20 mM FeCl3 in a ratio of 10:1:1. In a 96-well plate, 10 μL of the sample was combined with 190 μL of the FRAP solution and incubated in the dark for 15 min. The absorbance of the mixture was then measured at 593 nm. FeSO4 was used to create the standard curve, and the results were expressed as millimoles of FeSO4 equivalent per milligram of protein (mM FeSO4/mg protein).

[4] abbreviates: 37 °C, fluorescence ex 320/em 405 nm, mean ± SD, n = 3, SD.
The mark [5] stands for this setting: 10 µL sample + 190 µL FRAP solution, 15 min dark, 593 nm, FeSO4 standard curve, mean ± SD, n = 3, SD.

For the sequence “LGAEGRSP [P13, synthesized peptide identified from jellyfish fraction PUR20C]”, the “Released NO” value in the assay on RAW 264.7 (replicate 1) is listed as 35.17 µM; in the assay on RAW 264.7 (replicate 2), 35.51 µM; in the assay with RAW 264.7 (replicate 3), 37.58 µM. The “Released NO, mean±SD” value in the assay on RAW 264.7 (SD) is on record as 36.09 µM. Moreover, the “DPPH, mean±SD” value in assay [1] is listed as 5.85±0.66^D TE/mg protein. Also, the DPPH in assay [1] (replicate 1) is given as 5.23 TE/mg protein; in assay [1] (replicate 2), 5.76 TE/mg protein; in assay [1] (replicate 3), 6.56 TE/mg protein. Also, the “ACE inhibitory activity, mean±SD” value in assay [2] (setting [4]) is given as 20.51±1.81^G %. For the same sequence, the ACE inhibitory activity in assay [2] (replicate 1) turned out to be 21.56%; in assay [2] (replicate 2), 18.41%; in assay [2] (replicate 3) it was 21.56%. The FRAP is 4.82±0.73^H mM FeSO4/mg protein in assay [3] (setting [5]); 4.89 mM FeSO4/mg protein in assay [3] (supplement tables, replicate 1); 5.52 mM FeSO4/mg protein in assay [3] (supplement tables, replicate 2); 4.05 mM FeSO4/mg protein in assay [3] (supplement tables, replicate 3).
For the sequence “LNIPKPKLNLL [P11, synthesized peptide identified from jellyfish fraction PUR20C]”, the “Released NO” value with RAW 264.7 (replicate 1) was 36.55 µM; with RAW 264.7 (replicate 2) it was 35.86 µM; with RAW 264.7 (replicate 3), 37.58 µM. The “Released NO, mean±SD” value with RAW 264.7 (SD) came out at 36.66 ± 0.86 µM. The “DPPH, mean±SD” value in assay [1] was 3.81±0.40^E TE/mg protein. The DPPH in assay [1] (replicate 1) stood at 3.90 TE/mg protein; in assay [1] (replicate 2) it was 3.37 TE/mg protein; in assay [1] (replicate 3) it was 4.17 TE/mg protein. In assay [2] (setting [4]), the “ACE inhibitory activity, mean±SD” value is reported as 22.90±3.15^G %. Moreover, the results for the ACE inhibitory activity in assay [2] (replicate 1), in assay [2] (replicate 2) and in assay [2] (replicate 3) were 19.27%, 25.00% and 24.42%, respectively. The FRAP is listed as 6.36±0.63^G mM FeSO4/mg protein in assay [3] (setting [5]); 6.36 mM FeSO4/mg protein in assay [3] (supplement tables, replicate 1); 7.00 mM FeSO4/mg protein in assay [3] (supplement tables, replicate 2); 5.73 mM FeSO4/mg protein in assay [3] (supplement tables, replicate 3).
“MVVACVLPEA [P16, synthesized peptide identified from jellyfish fraction PUR20C]”: the “Released NO” value was 35.17 µM in the assay on RAW 264.7 (replicate 1), 33.44 µM in the assay with RAW 264.7 (replicate 2) and 35.17 µM with RAW 264.7 (replicate 3). Moreover, the results for the “Released NO, mean±SD” value in the assay with RAW 264.7 and in the assay with RAW 264.7 (SD) were 34.59 µM and 34.59 ± 0.99 µM, respectively. Besides, the “DPPH radical scavenging activity (TEAC)” value in assay [1] was “strongest DPPH radical scavenging activity”; in assay [1] (listed as MVVACVLPEA), 56.07 mM TE/mg protein. For the same sequence, in assay [1], the “DPPH, mean±SD” value is 56.07±0.30^A TE/mg protein. For the same sequence, the DPPH in assay [1] (replicate 1) is 55.89 TE/mg protein; in assay [1] (replicate 2), 55.89 TE/mg protein; in assay [1] (replicate 3) it was 56.42 TE/mg protein. Further, the “ACE inhibitory activity, mean±SD” value in assay [2] (37 °C, fluorescence ex 320/em 405 nm, mean ± SD, n = 3) came out at 91.69%. Besides, the ACE inhibitory activity in assay [2] (replicate 1) came to 92.27%; in assay [2] (replicate 2), 89.69%; in assay [2] (replicate 3) it was 93.12%. The FRAP is listed as 6.92 mM FeSO4/mg protein in assay [3] (setting [5]); 8.05 mM FeSO4/mg protein in assay [3] (supplement tables, replicate 1); 7.63 mM FeSO4/mg protein in assay [3] (supplement tables, replicate 2); 5.10 mM FeSO4/mg protein in assay [3] (supplement tables, replicate 3).
For “NQKAMQELNE [P1, synthesized peptide identified from jellyfish fraction PUR20C]”, the “Released NO” value in the assay on RAW 264.7 (replicate 1) amounted to 37.58 µM; in the assay on RAW 264.7 (replicate 2), 38.27 µM; with RAW 264.7 (replicate 3), 37.93 µM. Moreover, the “Released NO, mean±SD” value with RAW 264.7 (SD) turned out to be 37.93 µM. In addition, in assay [1], the “DPPH, mean±SD” value is reported as 1.16±0.15^H TE/mg protein. Also, the DPPH in assay [1] (replicate 1) was determined as 0.99 TE/mg protein; in assay [1] (replicate 2) it was 1.25 TE/mg protein; in assay [1] (replicate 3), 1.25 TE/mg protein. Further, the inhibition in assay [2] (setting [4]) was 6.48 ± 0.33%. Besides, the ACE inhibitory activity in assay [2] (replicate 1) came out at 6.67%; in assay [2] (replicate 2), 6.67%; in assay [2] (replicate 3), 6.10%. In addition, the FRAP is recorded as 8.61±0.12^E mM FeSO4/mg protein in assay [3] (setting [5]); 8.47 mM FeSO4/mg protein in assay [3] (supplement tables, replicate 1); 8.68 mM FeSO4/mg protein in assay [3] (supplement tables, replicate 2); 8.68 mM FeSO4/mg protein in assay [3] (supplement tables, replicate 3).

In general, inhibition refers to the change of the read-out against control, counted positive when it falls. A low value points to a weak effect.

Source of the values: paper PMC11813147, “Bioactivity assessment of peptides derived from salted jellyfish (Rhopilema hispidum) byproducts” (PLOS ONE, 2025).
